Reference: BindingDB's records for patent US12297186 (Agomab Spain, S.L.U., 2025)

Biological target: T1, TGF-beta receptor type-1 (Homo sapiens, UniProt P36897)
T1 sequence (P36897 whole entry): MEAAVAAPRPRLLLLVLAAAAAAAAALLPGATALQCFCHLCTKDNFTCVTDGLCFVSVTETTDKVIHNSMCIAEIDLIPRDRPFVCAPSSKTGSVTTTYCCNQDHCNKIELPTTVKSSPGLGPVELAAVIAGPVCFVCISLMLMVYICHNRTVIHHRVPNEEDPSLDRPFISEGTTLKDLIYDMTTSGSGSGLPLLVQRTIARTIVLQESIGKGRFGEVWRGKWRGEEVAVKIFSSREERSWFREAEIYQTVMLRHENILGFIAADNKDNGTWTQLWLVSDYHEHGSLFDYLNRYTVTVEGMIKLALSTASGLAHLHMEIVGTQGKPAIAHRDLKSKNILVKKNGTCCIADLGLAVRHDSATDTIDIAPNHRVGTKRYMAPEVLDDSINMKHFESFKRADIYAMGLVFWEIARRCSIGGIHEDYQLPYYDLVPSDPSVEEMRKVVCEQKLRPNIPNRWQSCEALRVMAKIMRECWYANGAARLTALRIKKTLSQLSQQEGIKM
Test: In Vitro Enzyme Assay
Experimental: Human TGFβl R-1 inhibition experiments were carried out in a white 384-microplate low flange (Corning 3572) with ADP-Glo kinase Assay Kit (Promega V9101) and TGβR-1 Kinase Enzyme System (Promega V4092). […] The reaction mixture was incubated in gentle shaking for 120 min at RT, after incubation of 10 μL of ADP-Glo Reagent was added and incubated in gentle shaking for 40 min at RT. 20 μL of Kinase Detection Reagent was added and plate was incubated in gentle shaking for 30 min at RT. Luminiscence (1000 ms) was measured in Perkin Elmer EnSpire Multimode plate reader.

IC50, in the range around 0.45 µM:
CC1C=C(CNC(=O)Cn2cc(-c3ccnc4ccccc34)c(-c3ccccn3)n2)C=CC1 (centres undefined) [US12297186, Example 10]
O=C(Cn1cc(-c2ccnc3ccccc23)c(-c2ccccn2)n1)NCC1=CC(F)CC=C1 (centres undefined) [US12297186, Example 11]
O=C(Cn1cc(-c2ccnc3ccccc23)c(-c2ccccn2)n1)NCC1=CC(Cl)CC=C1 (centres undefined) [US12297186, Example 12]
N#CC1C=C(CNC(=O)Cn2cc(-c3ccnc4ccccc34)c(-c3ccccn3)n2)C=CC1 (centres undefined) [US12297186, Example 13]
